Laboratory results as given in ChEMBL document CHEMBL2095176, “GSK Tuberculosis Screening Data”.
Converted amounts (≈) assume the structure as drawn.

system: Mycobacterium tuberculosis variant bovis BCG; assay: microbe, parasite or virus in culture; format: functional

Compound	MIC90 [µM]
CN(Cc1nc2ccccc2s1)C(=O)c1cccc(NC(=O)c2cccs2)c1	1.4 (≈ 0.571 µg/mL)
O=C(Nc1nnc(-c2ccccc2)o1)c1ccc2c(c1)CCCC2	4.1 (≈ 1.31 µg/mL)
O=C(Nc1nnc(-c2ccc(F)cc2)o1)c1ccc(Cl)cc1	6.9 (≈ 2.19 µg/mL)
CCCCNC(=O)N1CCN(Cc2cccc3ccccc23)CC1	8.8 (≈ 2.86 µg/mL)
O=c1c2snc(-c3ccc(F)cc3)c2ncn1Cc1ccc(F)cc1	9.6 (≈ 3.41 µg/mL)
N=c1n(CCC2CCCCC2)nnn1Cc1ccccc1	6.1 (≈ 1.74 µg/mL)
Cc1cc(Cl)cc(C(=O)c2c(C(C)C)c(=O)[nH]c(=O)n2Cc2cc(F)nc(F)c2)c1	0.4 (≈ 0.174 µg/mL)
Cc1ccccc1CN1CCc2nc(N3CCN(c4ncccn4)CC3)ncc2C1	4 (≈ 1.61 µg/mL)
COc1cccc(Nc2cc(C(C)(C)C)nc(-c3ccccn3)n2)c1	3.6 (≈ 1.2 µg/mL)
c1ccc(-c2ccc(CN3CCC4(CC3)OCCc3sccc34)s2)cc1	4.7 (≈ 1.79 µg/mL)
COc1ccc(CNC(=O)c2cnn3c2NC(c2ccc(OC)cc2)CC3C(F)(F)F)cc1 (stereo not given)	9.1 (≈ 4.19 µg/mL)
CCOC(=O)c1cc(-c2csc(Nc3c(C)cc(C)cc3C)n2)on1	7.7 (≈ 2.75 µg/mL)
Cc1ccc(NC(=O)C2COc3ccccc3C2)cc1Cl (stereo not given)	8.5 (≈ 2.57 µg/mL)
CCc1c(C)nc(-n2nc(C)cc2NC(=O)c2ccc(OC)cc2OC)[nH]c1=O	1.2 (≈ 0.477 µg/mL)
Cc1nc2c(C)cccn2c1C(=O)NCc1ccc2c(c1)OCO2	9.5 (≈ 3.07 µg/mL)
COc1ccccc1NC(=O)CN(Cc1ccco1)C(=O)c1cccc(NC(=O)c2cccs2)c1	0.4 (≈ 0.196 µg/mL)
Cc1cccc(CC(=N)NCCOc2cccc(Cl)c2)c1	5.5 (≈ 1.67 µg/mL)
Br.CC(C)(C)c1ccccc1OCCCON1C(=N)N=C(N)NC1(C)C	1.8
Br.Cc1cc(C)cc(OCCCON2C(=N)N=C(N)NC2(C)C)c1	7
O=C(NCc1ccccc1F)N1CCN(Cc2ccc(Br)s2)CC1	9.4 (≈ 3.88 µg/mL)
Clc1ccc(Nc2nc(-c3ccccn3)cs2)nc1	1.2 (≈ 0.347 µg/mL)
O=c1oc(-c2ccccc2F)nc2scc(-c3ccccc3)c12	4 (≈ 1.29 µg/mL)
O=C(COc1ccc(Cl)cc1)NNC(=O)c1cccs1	4.2 (≈ 1.31 µg/mL)
Fc1ccccc1-c1noc(N2CCN(Cc3ccc4c(c3)OCO4)CC2)n1	6.7 (≈ 2.56 µg/mL)
Cc1cc(C(=O)Nc2nc3c(C)cccc3s2)c2c(C)nn(C(C)C)c2n1	2.5 (≈ 0.949 µg/mL)

Compound	MIC90 [µM]
O=C(COc1ccccc1)N1CCN(c2cnc3ccccc3n2)CC1	9.3 (≈ 3.24 µg/mL)
O=C(CSc1ccc(Cl)cc1)NNC(=O)c1cccs1	4.8 (≈ 1.57 µg/mL)
O=C(NNC(=O)c1cccs1)c1csc(COc2ccccc2Cl)n1	5.3 (≈ 2.09 µg/mL)
CN1CCN(c2ccc(C(F)(F)F)cc2NC(=O)c2ccccn2)CC1	7.2 (≈ 2.62 µg/mL)
O=C(Nc1nnc(-c2ccc(Cl)cc2)o1)c1ccc(F)cc1	3.9 (≈ 1.24 µg/mL)
O=C(C=Cc1ccco1)N1CCN(Cc2ccc3c(c2)OCO3)CC1	7 (≈ 2.38 µg/mL)
COc1ccc(-c2nc(NC(=O)C3CCCN3S(=O)(=O)c3cccs3)sc2C)cc1 (stereo not given)	6.9 (≈ 3.2 µg/mL)
CN1CCN(c2cc(-c3ccncc3)nc(-c3ccccc3)n2)CC1	8.5 (≈ 2.82 µg/mL)
CCc1ccc(CN2CCC3(CC2)OCCc2sccc23)s1	0.5 (≈ 0.167 µg/mL)
C=CCNCCS(=O)(=O)c1cccc(Nc2ncc(-c3ccc(OC)nc3)cn2)c1	3.6 (≈ 1.53 µg/mL)
Cc1ccc2nc(C(F)(F)F)c(C(=O)NCc3cccs3)n2c1	1.2 (≈ 0.407 µg/mL)
CCN(CC)CCCn1c(Sc2ccnc(N3CCN(c4ccncc4)CC3)n2)nnc1-c1ccccn1	2.4 (≈ 1.27 µg/mL)
Oc1nc(-c2ccccn2)nc(C(F)(F)F)c1Br	9.6 (≈ 3.07 µg/mL)
Cc1ccc2nc(Cl)c(CNCc3cccs3)cc2c1	7.2 (≈ 2.18 µg/mL)
COc1cc(NC(=O)c2sc(-c3ccc(Cl)cc3)cc2/N=C2/CCCCN2C)ccc1OCCN1CCCC1	6 (≈ 3.4 µg/mL)
OC1(c2ccccc2)Oc2ccccc2N=C1c1ccccc1 (stereo not given)	4.8 (≈ 1.45 µg/mL)
Cc1cc(Br)ccc1-c1ccc(CNCC(C)O)o1 (stereo not given)	9.9 (≈ 3.21 µg/mL)
O=C(Nc1ccccc1C(F)(F)F)N1CCN(c2ccc3nnc(-c4ccc(F)cc4)n3n2)CC1	4 (≈ 1.94 µg/mL)
O=C(CSCc1ccc(Cl)cc1)NNC(=O)c1ccncc1	9.7 (≈ 3.26 µg/mL)
COc1cc2c(cc1OC)C(c1ccccc1)N(C(=O)c1nn(C)c(=O)c3ccccc13)CC2 (stereo not given)	6.3 (≈ 2.87 µg/mL)
Cc1cc(C)cc(Oc2c(C(C)C)c(=O)[nH]c(=O)n2Cc2cc(N)nc(F)c2)c1	9.8 (≈ 3.9 µg/mL)
COc1ccc(S(=O)(=O)N(C)C)cc1C(=O)N[C@H]1CCN2CC(c3ccccc3)C[C@H]2C1 (stereo not given in full)	0.4 (≈ 0.183 µg/mL)
O=C(Nc1nc(-c2ccccn2)cs1)c1ccc2c(c1)OCO2	3 (≈ 0.976 µg/mL)
COc1ccc(O)c(C(=O)c2cnn(C(=O)c3cccs3)c2)c1	1.8 (≈ 0.591 µg/mL)
Brc1ccc2cc(C3=NCCCO3)[nH]c2c1	7.1 (≈ 1.98 µg/mL)

Compound	MIC90 [µM]
CC1CCCC(NC(=O)Nc2ccc3snnc3c2)C1C (stereo not given)	3.1 (≈ 0.944 µg/mL)
FC(F)(F)c1ccc2c(N3CCNCC3)ncc(-c3ccsc3)c2n1	9.4 (≈ 3.43 µg/mL)
COc1ccc(NC(=O)N2CCCN(c3nc4c(C)c(C)ccc4cc3C#N)CC2)cc1	5.3 (≈ 2.28 µg/mL)
CCCCc1ccc(C(=O)Nc2nccc3ccccc23)nc1	7.2 (≈ 2.2 µg/mL)
O=C(Nc1ccc(C(=O)N2CCCCC2c2nc3ccccc3s2)cc1)c1ccco1 (stereo not given)	0.1 (≈ 0.0432 µg/mL)
CC(=O)Nc1cc(C(=O)Nc2ccc(C3=NCCN3)cc2)ccc1C(=O)Nc1ccc(C2=NCCN2)cc1	1.6 (≈ 0.815 µg/mL)
O=C(NNC(=O)c1ccc([N+](=O)[O-])o1)c1ccc2ccccc2c1	7.2 (≈ 2.34 µg/mL)
CCN(Cc1ccc2c(c1)OCO2)C(=O)CSc1nc(NC)c2ccccc2n1	3.3 (≈ 1.35 µg/mL)
CCC(Sc1nc2ccccc2o1)C(=O)Nc1nccs1 (stereo not given)	5.7 (≈ 1.82 µg/mL)
O=C(Cc1ccc(F)cc1)Nc1nc(-c2ccccn2)cs1	8.9 (≈ 2.79 µg/mL)
O=C(CSc1nnc(Nc2ccccc2)s1)NNC(=O)c1cccs1	8.2 (≈ 3.21 µg/mL)
CCCn1nnnc1NC(=O)c1ccc(Cl)c(Cl)c1	7.9 (≈ 2.37 µg/mL)
CCC(C)CC(=O)Nc1nc2c(s1)C(=O)CC(C(=O)N(C)Cc1cccc3ncccc13)C2 (stereo not given)	0.3 (≈ 0.139 µg/mL)
CNc1nc(SC)nc2ccccc12	0.3 (≈ 0.0616 µg/mL)
O=C(c1cnn(C(=O)c2ccco2)c1)c1ccccc1O	2.5 (≈ 0.706 µg/mL)
O=C(/C=C/c1ccccc1C(F)(F)F)Nc1ccc2c(c1)C1CCCN1CC2 (stereo not given)	7.3 (≈ 2.82 µg/mL)
Cc1[nH]n2c(=O)cc(-c3ccccc3Cl)nc2c1-c1ccccc1	8.1 (≈ 2.72 µg/mL)
CCCCN1CCC(Cc2noc(-c3cc(Cl)c(N)c4c3OCCO4)n2)C1 (stereo not given)	6.9 (≈ 2.71 µg/mL)
CS(=O)(=O)c1cccc(C(=O)Nc2nc(-c3ccccn3)cs2)c1	3.3 (≈ 1.19 µg/mL)
Cc1cc(Oc2cccc(CN3CCCC3)c2)nc(NCCc2ccccc2)n1	8.9 (≈ 3.46 µg/mL)
CCc1ccc([C@@H]2C[C@H](C(F)(F)F)n3ncc(C(=O)NCc4ccc(OC)cc4)c3N2)cc1	2.7 (≈ 1.24 µg/mL)
Cc1csc2nc(-c3ccccn3)nc(Nc3ccncn3)c12.O=C(O)C(F)(F)F	1.3
Nc1ccc(C(=O)C(=O)c2ccc(N)cc2)cc1	0.4 (≈ 0.0961 µg/mL)
O=C(Nc1nnc(SCc2ccc(Cl)cc2)s1)c1ccccn1	4 (≈ 1.45 µg/mL)
CN(C)CCCSc1nc(N2CCCC2)c2c(c1C#N)CCCC2	8.5 (≈ 2.93 µg/mL)

Compound	MIC90 [µM]
CCCCOc1ccc(C(=O)Nc2nc(-c3ccccn3)cs2)cc1	1.6 (≈ 0.566 µg/mL)
COc1cc(CCN2CC[C@H](NC(=O)c3ccc(Cl)c(Cl)c3)C2)ccc1OC1CCNCC1	7 (≈ 3.45 µg/mL)
COc1ccc2sc(Nc3nc(-c4ccccn4)cs3)nc2c1	3.5 (≈ 1.19 µg/mL)
c1cc(CN2CCC3(CC2)OCCc2sccc23)nc(-c2ccc3c(c2)OCO3)c1	2.3 (≈ 0.967 µg/mL)
COc1cc(C(=O)Nc2nc(-c3ccccn3)cs2)ccc1OCC(C)C	7 (≈ 2.68 µg/mL)
Cc1c(Cl)cc(F)cc1S(=O)(=O)NCCCn1nc(Cl)c(N2CCCNCC2)cc1=O	7.9 (≈ 3.89 µg/mL)
CC(C)Oc1ccc(NCC(=O)Nc2ccc(F)cc2)cc1	6.7 (≈ 2.03 µg/mL)
N#Cc1nc(-c2cccs2)oc1S(=O)(=O)c1ccc(Br)cc1	2.9 (≈ 1.15 µg/mL)
Cc1ccc(NC(=O)c2nc(N3CCCN(C)CC3)ccc2Cl)cc1F	8.8 (≈ 3.32 µg/mL)
N#Cc1nc(-c2ccccc2)oc1S(=O)(=O)c1ccc(Cl)cc1	3.6 (≈ 1.24 µg/mL)
CCc1cc(=O)[nH]c(-n2nc(C)cc2NC(=O)c2ccc(C(C)(C)C)cc2)n1	0.8 (≈ 0.304 µg/mL)
O=C(NC1CCN(Cc2ccsc2)C1)c1sccc1-c1cccc(Cl)c1 (stereo not given)	9 (≈ 3.63 µg/mL)
Cn1c(=O)c(C(=O)NNC(=O)c2cccc(Cl)c2)c(O)c2ccccc21	5.3 (≈ 1.97 µg/mL)
COC(=O)c1c(NC(=O)c2c(F)c(F)c(F)c(F)c2F)sc2c1CCCCC2	2 (≈ 0.839 µg/mL)
O=C(Nc1cccc(C(=O)N2CCCCC2c2nc3ccccc3s2)c1)c1cccs1 (stereo not given)	0.1 (≈ 0.0448 µg/mL)
CCc1ccc(S(=O)(=O)Nc2cc(CN3CCN(CC4CC4)CC3)ccc2C)cc1	9.6 (≈ 4.11 µg/mL)
O=C(Nc1nnc(-c2cc(Cl)ccc2Cl)o1)c1ccc(Br)s1	8.9 (≈ 3.73 µg/mL)
Brc1ccc(-c2noc(C3CCCNC3)n2)cc1 (stereo not given)	6.2 (≈ 1.91 µg/mL)
Nc1cc(-c2ccc(Cl)cc2)nn1-c1cccc(C(=O)NCC2CC(=O)N(c3ccccc3)C2)c1 (stereo not given)	5.9 (≈ 2.87 µg/mL)
Cc1nc2ccccn2c1C(=O)NCc1ccc2c(c1)OCO2	3 (≈ 0.928 µg/mL)
O=C(Nc1nc(-c2ccccn2)cs1)c1ccno1	1.8 (≈ 0.49 µg/mL)
O=C(NNC(=O)c1cccs1)c1ccc(OCc2ccccc2)cc1	9.9 (≈ 3.49 µg/mL)
COc1ccc(-c2nsc(NC(=O)COc3ccc(C)cc3)n2)cc1OC	4.7 (≈ 1.81 µg/mL)
CN(Cc1nc2ccccc2s1)C(=O)c1ccc2c(c1)CC(c1ccccc1)OC2=O (stereo not given)	4.7 (≈ 2.01 µg/mL)
COc1ccc(-c2nc(CN3CCCC3c3cccs3)cs2)cc1OC (stereo not given)	1.4 (≈ 0.541 µg/mL)
